{"source": "patent US6623933B1", "about": "(priority 1999, dated 2003)", "key": {"[1]": {"molecular_target": "NR1010/NR2A (Rattus norvegicus, UniProt P35439+Q00959)", "parameters": "agonist nHill / agonist Emax: dose or concentration left out as unconfirmed", "conditions": "NR1010/NR2A"}, "[2]": {"molecular_target": "NR1101/NR2A (Rattus norvegicus, UniProt P35439+Q00959)", "parameters": "agonist Emax: dose or concentration left out as unconfirmed", "conditions": "NR1101/NR2A"}, "[3]": {"molecular_target": "NR1/NR2D (NR1100) (Rattus norvegicus, UniProt P35439+Q62645)", "sequence (Q62645 28-1323, other chains not shown)": "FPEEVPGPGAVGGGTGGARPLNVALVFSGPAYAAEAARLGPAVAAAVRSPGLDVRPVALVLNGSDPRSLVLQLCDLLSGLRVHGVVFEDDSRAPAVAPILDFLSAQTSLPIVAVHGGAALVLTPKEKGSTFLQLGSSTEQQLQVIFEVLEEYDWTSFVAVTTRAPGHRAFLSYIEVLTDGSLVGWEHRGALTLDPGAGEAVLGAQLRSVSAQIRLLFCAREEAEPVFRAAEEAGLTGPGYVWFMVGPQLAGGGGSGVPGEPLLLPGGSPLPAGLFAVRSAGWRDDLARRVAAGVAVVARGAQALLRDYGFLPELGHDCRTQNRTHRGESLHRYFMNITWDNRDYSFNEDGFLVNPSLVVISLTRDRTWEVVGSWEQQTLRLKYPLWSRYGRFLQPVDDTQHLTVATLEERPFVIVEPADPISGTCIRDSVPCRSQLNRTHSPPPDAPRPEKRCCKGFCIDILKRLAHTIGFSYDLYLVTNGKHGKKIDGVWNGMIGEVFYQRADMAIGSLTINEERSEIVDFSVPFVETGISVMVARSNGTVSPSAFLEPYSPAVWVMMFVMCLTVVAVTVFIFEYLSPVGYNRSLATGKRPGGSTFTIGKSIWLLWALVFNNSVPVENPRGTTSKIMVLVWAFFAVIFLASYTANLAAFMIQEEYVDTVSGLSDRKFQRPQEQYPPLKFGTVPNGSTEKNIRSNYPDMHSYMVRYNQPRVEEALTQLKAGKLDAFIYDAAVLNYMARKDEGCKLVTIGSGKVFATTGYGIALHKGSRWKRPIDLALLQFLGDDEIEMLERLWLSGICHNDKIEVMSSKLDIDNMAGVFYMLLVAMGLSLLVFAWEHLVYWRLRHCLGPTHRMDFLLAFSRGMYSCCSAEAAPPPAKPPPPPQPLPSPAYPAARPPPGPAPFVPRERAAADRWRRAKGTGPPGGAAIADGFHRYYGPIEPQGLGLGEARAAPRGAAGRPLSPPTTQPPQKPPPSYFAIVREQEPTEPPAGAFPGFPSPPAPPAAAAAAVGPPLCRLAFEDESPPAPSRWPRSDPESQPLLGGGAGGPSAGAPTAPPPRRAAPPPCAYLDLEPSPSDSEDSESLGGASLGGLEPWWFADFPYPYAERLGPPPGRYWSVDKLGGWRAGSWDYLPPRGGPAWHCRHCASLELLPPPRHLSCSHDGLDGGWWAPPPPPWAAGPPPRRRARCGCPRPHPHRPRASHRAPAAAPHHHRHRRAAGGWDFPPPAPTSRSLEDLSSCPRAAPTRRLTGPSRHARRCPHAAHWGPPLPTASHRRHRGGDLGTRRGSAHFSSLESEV", "excerpt": "(§5) Plasmids containing the NR1100 (NR1G) and NR2A cDNA inserts were kindly provided by Dr. Nakanishi (Kyoto University Faculty of Medicine, Kyoto, Japan). Plasmids containing the NR2B, NR2C and NR2D cDNA inserts were kindly provided by Dr. P. Seeburg (Heidelberg University, Heidelberg, Germany). Plasmids were linearized with appropriate restriction enzyme prior to in vitro transcription using the Message Machine kit (Ambion, Inc., Austin, Tex.).\n(§6) Female, oocyte-positive Xenopus laevis frogs were purchased from Xenopus I (Dexter, Mich.). […] Oocytes were injected with 50 nL of RNA solutions using an electronic microinjector (Drummond Inc., Broomall, Pa.). […] The injected oocytes were used for experiments following 1-5 days of incubation in Barth's solution at 18-20° C.\n(§7) The microelectrodes were fabricated from borosilicate glass capillaries with a programmed puller (Sutter Instrument Co., Calif.). Microelectrode resistance was 1-3 MΩ_when filled with 3 M KCl.\n(§8) Except where otherwise stated, oocytes were clamped at a holding potential of −70 mV during data acquisition. The membrane current was filtered at 500 Hz and sampled at 100 Hz. Drugs were applied using a gravity-driven external perfusion system. The working volume of the recording chamber was 30 μl and the rate of the perfusion was 50 μl/sec. The drug application lasted 10 sec and was followed by 60 s wash. Data acquisition and external perfusion were controlled using custom-written software implemented in the SuperScope II development environment (GW Instruments, Mass.). All experiments were performed at room temperature of 22-24° C. Peak or steady-state current measurements were normalized and expressed as a fraction of the peak or steady-state control current measurements, which were performed before and after application of every single concentration of agonists or steroids.\n(§9) Concentration-response data were analyzed by nonlinear regress ion using the logistic equation Response=Emax/(1+(EC50/c)^nH), where c is concentration, Emaxis the maximum response, nHis the Hill coefficient. The data are presented as mean±SEM. EC50values are averaged as logarithms (De Lean et al., Am. J. Physiol. 235: E97-E102 (1978))±the SEM of the log EC50. […] The pooled data were simultaneously fitted to the logistic equation, either with Emax and EC50 constrained to be identical in the presence and absence of PS, or allowing one or both to vary independently. […] This was regarded as indicating a significant treatment effect of PS, but the change in EC50and Emaxwas not considered significant. […] No attempt was made to test the generally small changes in nHfor statistical significance."}, "[4]": {"molecular_target": "NR1000/NR2A (Rattus norvegicus, UniProt P35439+Q00959)", "parameters": "agonist Emax: dose or concentration left out as unconfirmed", "conditions": "NR1000/NR2A"}, "[5]": {"molecular_target": "NR1001/NR2A (Rattus norvegicus, UniProt P35439+Q00959)", "parameters": "agonist Emax: dose or concentration left out as unconfirmed", "conditions": "NR1001/NR2A"}, "[6]": {"molecular_target": "NR1011/NR2A (Rattus norvegicus, UniProt P35439+Q00959)", "parameters": "agonist Emax: dose or concentration left out as unconfirmed", "conditions": "NR1011/NR2A; presence of PS"}, "[7]": {"molecular_target": "NR1/NR2C (NR1100) (Rattus norvegicus, UniProt P35439+Q00961)", "conditions": "NR1/NR2C; +100 μM PS", "excerpt": "as §5, §6, §7, §8, §9"}, "[8]": {"molecular_target": "NR1100/NR2A (Rattus norvegicus, UniProt P35439+Q00959)", "sequence (Q00959 23-1464, other chains not shown)": "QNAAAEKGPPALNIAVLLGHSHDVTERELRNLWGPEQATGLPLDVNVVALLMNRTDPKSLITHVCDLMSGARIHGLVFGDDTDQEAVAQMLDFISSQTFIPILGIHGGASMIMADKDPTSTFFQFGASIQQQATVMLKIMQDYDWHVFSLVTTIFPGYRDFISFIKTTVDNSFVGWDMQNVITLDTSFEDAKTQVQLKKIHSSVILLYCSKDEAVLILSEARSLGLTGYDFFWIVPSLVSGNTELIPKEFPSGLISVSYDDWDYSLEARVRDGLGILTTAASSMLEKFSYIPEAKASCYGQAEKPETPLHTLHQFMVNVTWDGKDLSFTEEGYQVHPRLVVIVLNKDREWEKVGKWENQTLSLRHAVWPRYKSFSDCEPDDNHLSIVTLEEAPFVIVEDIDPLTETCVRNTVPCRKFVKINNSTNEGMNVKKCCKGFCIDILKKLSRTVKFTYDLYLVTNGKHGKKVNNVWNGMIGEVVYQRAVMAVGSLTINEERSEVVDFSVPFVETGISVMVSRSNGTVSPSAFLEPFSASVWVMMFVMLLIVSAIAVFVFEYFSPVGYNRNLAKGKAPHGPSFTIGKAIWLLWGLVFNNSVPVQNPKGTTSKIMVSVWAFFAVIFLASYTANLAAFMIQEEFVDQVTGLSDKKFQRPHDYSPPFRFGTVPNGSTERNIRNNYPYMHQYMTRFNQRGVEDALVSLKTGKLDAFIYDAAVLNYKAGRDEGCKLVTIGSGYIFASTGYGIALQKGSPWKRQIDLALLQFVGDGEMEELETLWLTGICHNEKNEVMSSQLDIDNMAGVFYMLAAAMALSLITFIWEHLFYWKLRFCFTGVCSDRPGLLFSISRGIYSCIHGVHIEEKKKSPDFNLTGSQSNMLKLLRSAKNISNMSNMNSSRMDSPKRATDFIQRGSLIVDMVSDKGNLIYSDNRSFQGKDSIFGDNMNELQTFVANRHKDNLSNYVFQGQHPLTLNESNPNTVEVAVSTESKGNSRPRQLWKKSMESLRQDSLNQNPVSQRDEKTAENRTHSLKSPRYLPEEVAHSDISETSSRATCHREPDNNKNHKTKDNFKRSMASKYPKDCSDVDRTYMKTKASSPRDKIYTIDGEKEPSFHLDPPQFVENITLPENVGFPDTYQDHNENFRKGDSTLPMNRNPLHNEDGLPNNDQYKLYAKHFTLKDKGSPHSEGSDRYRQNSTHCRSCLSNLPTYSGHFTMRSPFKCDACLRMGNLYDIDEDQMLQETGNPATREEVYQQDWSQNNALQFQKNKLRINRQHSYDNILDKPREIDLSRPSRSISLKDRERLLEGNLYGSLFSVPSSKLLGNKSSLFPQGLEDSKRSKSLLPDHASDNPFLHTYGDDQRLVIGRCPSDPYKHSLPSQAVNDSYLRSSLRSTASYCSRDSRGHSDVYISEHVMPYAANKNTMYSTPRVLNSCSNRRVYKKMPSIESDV", "parameters": "agonist nHill / agonist Emax: dose or concentration left out as unconfirmed", "conditions": "NR1100/NR2A"}, "[9]": {"molecular_target": "NR1/NR2B (NR1100) (Rattus norvegicus, UniProt P35439+Q00960)", "sequence (Q00960 27-1482, other chains not shown)": "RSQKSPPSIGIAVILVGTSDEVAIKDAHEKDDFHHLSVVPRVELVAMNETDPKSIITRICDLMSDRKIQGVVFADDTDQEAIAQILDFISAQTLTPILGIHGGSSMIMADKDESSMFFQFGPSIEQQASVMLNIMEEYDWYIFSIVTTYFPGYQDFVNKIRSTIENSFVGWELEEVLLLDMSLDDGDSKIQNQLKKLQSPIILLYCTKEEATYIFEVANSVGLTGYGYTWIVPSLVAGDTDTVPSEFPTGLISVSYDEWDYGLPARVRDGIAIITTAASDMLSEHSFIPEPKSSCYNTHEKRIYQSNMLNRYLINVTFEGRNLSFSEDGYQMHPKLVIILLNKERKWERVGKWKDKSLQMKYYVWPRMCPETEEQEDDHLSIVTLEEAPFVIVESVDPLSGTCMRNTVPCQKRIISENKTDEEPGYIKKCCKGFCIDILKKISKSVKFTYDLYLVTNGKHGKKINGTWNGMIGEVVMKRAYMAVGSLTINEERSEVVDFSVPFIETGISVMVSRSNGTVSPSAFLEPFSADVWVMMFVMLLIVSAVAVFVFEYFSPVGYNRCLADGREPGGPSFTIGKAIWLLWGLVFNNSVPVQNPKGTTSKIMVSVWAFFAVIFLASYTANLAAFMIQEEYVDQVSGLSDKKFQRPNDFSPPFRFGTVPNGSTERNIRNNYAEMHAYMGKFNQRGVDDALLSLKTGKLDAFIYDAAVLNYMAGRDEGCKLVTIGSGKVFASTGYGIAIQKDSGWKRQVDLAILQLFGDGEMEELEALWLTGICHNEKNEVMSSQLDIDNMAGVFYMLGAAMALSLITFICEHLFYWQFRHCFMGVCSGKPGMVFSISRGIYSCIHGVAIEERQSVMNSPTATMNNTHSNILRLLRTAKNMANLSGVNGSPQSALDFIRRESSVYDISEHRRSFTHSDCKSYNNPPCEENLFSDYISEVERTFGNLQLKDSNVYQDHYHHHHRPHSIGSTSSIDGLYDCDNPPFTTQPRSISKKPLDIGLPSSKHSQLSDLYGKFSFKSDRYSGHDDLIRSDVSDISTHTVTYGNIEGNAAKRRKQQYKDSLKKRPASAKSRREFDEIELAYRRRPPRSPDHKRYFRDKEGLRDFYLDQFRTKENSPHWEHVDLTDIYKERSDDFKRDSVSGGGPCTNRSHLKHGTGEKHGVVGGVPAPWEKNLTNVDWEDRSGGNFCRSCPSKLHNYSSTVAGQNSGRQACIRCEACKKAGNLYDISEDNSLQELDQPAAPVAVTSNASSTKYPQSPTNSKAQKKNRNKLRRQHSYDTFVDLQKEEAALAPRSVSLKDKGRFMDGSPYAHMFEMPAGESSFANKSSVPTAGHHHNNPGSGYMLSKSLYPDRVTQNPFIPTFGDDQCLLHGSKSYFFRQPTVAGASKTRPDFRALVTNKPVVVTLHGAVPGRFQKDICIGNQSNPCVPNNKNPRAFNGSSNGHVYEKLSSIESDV", "excerpt": "as §5, §6, §7, §8, §9"}, "[10]": {"molecular_target": "NR1111/NR2A (Rattus norvegicus, UniProt P35439+Q00959)", "parameters": "agonist Emax: dose or concentration left out as unconfirmed", "conditions": "NR1111/NR2A"}, "[11]": {"molecular_target": "NR1/NR2A (NR1100) (Rattus norvegicus, UniProt P35439+Q00959)", "conditions": "+100 μM PS", "excerpt": "as §5, §6, §7, §8, §9"}, "[12]": {"molecular_target": "T1, GluR1 AMPA receptor (Rattus norvegicus, UniProt P19490)", "T1 construct": "expressed in transfected cells; host or cells: Xenopus oocytes injected with GluR1 cRNA", "assay": "Kainate-induced currents, Xenopus oocytes injected with GluR1 cRNA", "type": "cell-based", "conditions": "GluR1; steroid 100 μM; 100 μM kainate; −100 mV", "text": "(§1) Plasmids were obtained from the following individuals: Dr. Suzanne Zukin (Albert Einstein College of Medicine, Bronx, N.Y.), NR1100; Dr. Shigetada Nakanishi (Kyoto University Faculty of Medicine, Kyoto, Japan), NR2A; Dr. Stephen Heinemann (Salk Institute, San Diego, Calif.), GluR1 (flop), GluR3 (flop), and GluR6. Plasmids were linearized with BamH1 (NR1100), XhoI (NR2A, GluR1, GluR3) or XbaI (GluR6) prior to in vitro transcription with T3 (GluR1, GluR3, GluR6) or T7 (NR1100, NR2A) RNA polymerase using the Message Machine kit (Ambion, Austin, Tex.). […] RNA solutions (50-70 nl) were injected into oocytes for delivery of NR1100 (5 ng), NR1100:NR2A (1:10 ng), GluR1 (5 ng). GluR3 (5 ng), or GluR6 (20 ng). Oocytes were incubated in ND96 at 18-20° C. for 3-7 days prior to electrophysiological recording.\n(§2) Steroid solutions were prepared as 70-100 mM frozen stocks in dimethyl sulfoxide (DMSO). The final DMSO concentration of all recording solutions was between 0.1% to 0.5% and was constant within an experiment.\n(§3) Perfusion control and data acquisition were carried out using an automated oocyte electrophysiology workstation that was developed for the rapid collection of concentration-response data and real-time waveform analysis (Yaghoubi et al., Soc. Neurosci. Abstr. 20: 1109 (1995)). This system is implemented on a Macintosh IIci computer (Apple Computer, Cupertino, Calif.) equipped with MacA-DIOS II data acquisition and control hardware (GW Instruments, Somerville, Mass.). Drug application is controlled by the computer through a series of valves, using custom-written software based on the SuperScope II development environment, improving the efficiency and reproducibility of data collection. Experiments were carried out using an Axoclamp-2A voltage clamp amplifier (Axon Instruments, Foster City, Calif.) in two-electrode voltage clamp mode. Intracellular microelectrodes (1-3 MΩ) were filled with 3 M KCl. […] Membrane potential was clamped at −60 to −70 mV and stepped to −100 mV at the start of data acquisition unless otherwise stated. […] Current and voltage recordings were digitized at 100 Hz for analysis. GluR6 injected oocytes were treated for 10 min with 10 μg/ml concanavalin A to prevent fast desensitization.\n(§4) Results are expressed as mean±S.E.M. Statistical comparisons were made using Student's t-test."}, "[13]": {"molecular_target": "T2, GluR3 AMPA receptor (Rattus norvegicus, UniProt P19492)", "T2 construct": "expressed in transfected cells; host or cells: Xenopus oocytes injected with GluR3 cRNA", "assay": "Kainate-induced currents, Xenopus oocytes injected with GluR3 cRNA", "type": "cell-based", "conditions": "GluR3; steroid 100 μM; 100 μM kainate; −100 mV", "text": "as §1, §2, §3, §4"}, "[14]": {"molecular_target": "T3, GluR6 kainate receptor (Rattus norvegicus, UniProt P42260)", "T3 construct": "expressed in transfected cells; host or cells: Xenopus oocytes injected with GluR6 cRNA (concanavalin A treated)", "T3 sequence (P42260 32-908)": "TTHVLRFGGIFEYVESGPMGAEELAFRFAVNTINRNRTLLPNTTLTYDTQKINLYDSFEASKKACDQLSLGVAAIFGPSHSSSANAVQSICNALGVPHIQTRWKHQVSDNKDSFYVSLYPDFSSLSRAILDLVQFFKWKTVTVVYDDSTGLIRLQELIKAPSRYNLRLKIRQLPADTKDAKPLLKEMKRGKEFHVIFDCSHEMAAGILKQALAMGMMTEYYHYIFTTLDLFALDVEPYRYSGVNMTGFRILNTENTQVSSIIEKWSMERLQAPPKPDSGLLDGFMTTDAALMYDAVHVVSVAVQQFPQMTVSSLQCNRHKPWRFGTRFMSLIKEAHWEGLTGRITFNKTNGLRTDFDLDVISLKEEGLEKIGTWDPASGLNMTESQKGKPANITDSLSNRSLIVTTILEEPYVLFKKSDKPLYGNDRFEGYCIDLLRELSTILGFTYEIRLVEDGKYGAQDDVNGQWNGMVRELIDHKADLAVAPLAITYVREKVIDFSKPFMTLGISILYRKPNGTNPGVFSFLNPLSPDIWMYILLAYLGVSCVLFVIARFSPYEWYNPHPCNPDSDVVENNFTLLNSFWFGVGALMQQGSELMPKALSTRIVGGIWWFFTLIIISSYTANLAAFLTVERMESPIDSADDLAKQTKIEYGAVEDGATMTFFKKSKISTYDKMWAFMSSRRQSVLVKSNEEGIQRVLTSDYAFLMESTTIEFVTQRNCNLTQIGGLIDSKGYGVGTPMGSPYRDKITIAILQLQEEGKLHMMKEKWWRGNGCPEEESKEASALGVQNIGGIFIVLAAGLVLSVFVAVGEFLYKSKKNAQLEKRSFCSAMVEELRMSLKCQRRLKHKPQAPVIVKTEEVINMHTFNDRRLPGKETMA", "assay": "Kainate-induced currents, Xenopus oocytes injected with GluR6 cRNA", "type": "cell-based", "conditions": "GluR6; steroid 100 μM; 10 μM kainate; −100 mV", "text": "as §1, §2, §3, §4"}, "[15]": {"molecular_target": "T4, NR1100+NR2A NMDA receptor (Rattus norvegicus, UniProt P35439+Q00959)", "T4 construct": "expressed in transfected cells; host or cells: Xenopus oocytes co-injected with NR1100 and NR2A cRNA", "assay": "NMDA-induced currents, Xenopus oocytes, Example 1", "type": "cell-based", "conditions": "NR1100 + NR2A; steroid 100 μM; 100 μM NMDA; −100 mV", "text": "as §1, §2, §3, §4"}}, "note": "Like-named read-outs stand apart in the source and are kept apart here.", "data": [{"compound": "NCC(=O)O", "note": "[glycine]", "values": [{"measurement": "agonist Emax", "setting": "[1]; absence of PS", "result": "1.51 ± 0.07"}, {"measurement": "agonist Emax", "setting": "[1]; presence of PS", "result": "1.92 ± 0.19"}, {"measurement": "agonist nHill", "setting": "[1]; presence of PS", "result": "1.38 ± 0.10"}, {"measurement": "agonist Emax", "setting": "[2]; absence of PS", "result": "1.63 ± 0.04"}, {"measurement": "agonist Emax", "setting": "[2]; presence of PS", "result": "2.46 ± 0.23"}, {"measurement": "agonist Emax", "setting": "[3]; +100 μM PS", "result": 0.74}, {"measurement": "agonist nH", "setting": "[3]; +100 μM PS", "result": "0.95 ± 0.01"}, {"measurement": "agonist Emax", "setting": "[3]; no PS", "result": "1.22 ± 0.05"}, {"measurement": "agonist Emax", "setting": "[4]; absence of PS", "result": "1.48 ± 0.04"}, {"measurement": "agonist nHill", "setting": "[4]; absence of PS", "result": "0.90 ± 0.01"}, {"measurement": "agonist Emax", "setting": "[4]; presence of PS", "result": "2.88 ± 0.27"}, {"measurement": "agonist Emax", "setting": "[5]; absence of PS", "result": "1.89 ± 0.20"}, {"measurement": "agonist Emax", "setting": "[5]; presence of PS", "result": "2.77 ± 0.40"}, {"measurement": "agonist Emax", "setting": "[6]", "result": "2.24 ± 0.29"}, {"measurement": "agonist Emax", "setting": "[7]", "result": 0.87}, {"measurement": "agonist nH", "setting": "[7]", "result": "1.11 ± 0.12"}, {"measurement": "agonist Emax", "setting": "[8]; absence of PS", "result": "1.52 ± 0.07"}, {"measurement": "agonist Emax", "setting": "[8]; presence", "result": "2.34 ± 0.09"}, {"measurement": "agonist nHill", "setting": "[8]; presence", "result": "1.03 ± 0.05"}, {"measurement": "agonist Emax", "setting": "[9]; +100 μM PS", "result": "1.63 ± 0.04"}, {"measurement": "agonist nH", "setting": "[9]; +100 μM PS", "result": "1.15 ± 0.03"}, {"measurement": "agonist nH", "setting": "[9]; no PS", "result": "1.09 ± 0.04"}, {"measurement": "agonist Emax", "setting": "[10]; absence of PS", "result": "1.93 ± 0.07"}, {"measurement": "agonist Emax", "setting": "[10]; presence of PS", "result": "2.68 ± 0.16"}, {"measurement": "agonist Emax", "setting": "[11]", "result": 2.34}, {"measurement": "agonist nH", "setting": "[11]", "result": "1.03 ± 0.05"}]}, {"compound": "C[C@]12CC[C@H](O)CC1=CC[C@@H]1[C@@H]2CC[C@]2(C)C(=O)CC[C@@H]12", "note": "[Dehydroepiandrosterone]", "values": [{"measurement": "Percentage change in kainate response", "setting": "[12]", "result": "−16 ± 3(3) %"}, {"measurement": "Percentage change in kainate response", "setting": "[13]", "result": "−7 ± 5(3) %"}, {"measurement": "Percentage change in kainate response", "setting": "[14]", "result": "−5 ± 1(3) %"}]}, {"compound": "C[C@]12CC[C@@H]3c4ccc(OS(=O)(=O)O)cc4CC[C@H]3[C@@H]1CC[C@H]2O", "note": "[17α-Estradiol-3-sulfate]", "values": [{"measurement": "Percentage change in kainate response", "setting": "[12]", "result": "−22 ± 3(3) %"}, {"measurement": "Percentage change in kainate response", "setting": "[13]", "result": "−17 ± 2(3) %"}, {"measurement": "Percentage change in kainate response", "setting": "[14]", "result": "−7 ± 1(5) %"}]}, {"compound": "Dehydroepiandrosterone sulfate", "values": [{"measurement": "Percentage change in kainate response", "setting": "[12]", "result": "−23 ± 3(3) %"}, {"measurement": "Percentage change in NMDA response", "setting": "[15]", "result": "+8 ± 13(3) %"}, {"measurement": "Percentage change in kainate response", "setting": "[13]", "result": "−7 ± 1(4) %"}, {"measurement": "Percentage change in kainate response", "setting": "[14]", "result": "−17 ± 5(3) %"}]}]}
